Entries after “also recorded” stand apart in the source; their conditions may differ.
Assay: Plasma pharmacokinetics after single oral dose in male rats
Type: in vivo
Details: single 100 mg oral dose; for AUC(0-t) / Cmax / Tmax: rat, plasma, N=3; for AUC(0-t) / Cmax: geometric mean; for Tmax: median
Experimental: The d6-THCu was formulated at a concentration of 10% w/w in the amounts and ratios provided below:
Compositions were prepared according to the following process. Set up the 5 L jacketed reaction vessel and Julabo circulation heater. Begin heating the Julabo to 90° C. Dispense Phosal 75 SA, Captex 300, and Labrasol ALF (Items 2, 3, and 4) into appropriately sized containers. Add sthe Phosal 75 SA, Captex 300, and Labrasol ALF to the 5 L reaction vessel. Mix contents until visually homogenous and product reaches a temperature of 85° C.±5° C. Add Tetrahydrocurcumin to vessel containing Phosal 75 SA, Captex 300, and Labrasol ALF while stirring. Mix until completely dissolved and visually homogenous. Reduce the Julabo temperature and allow the solution to cool to 30° C.±5° C. while continuing to stir. Package product by adding 50 mL to appropriate 60 mL bottles. Continue until product is exhausted.
The d6-THCu version of the compound provides a desirable release profile compared to non-deuterated THCu. Compositions were prepared using THCu as well as d6-THCu and their pk profiles were compared.
The plasma concentrations of THCu and THCu-d6 was compared by administering single doses of 100 mg to male rats. […] Individual animal pharmacokinetic parameters comparing THCu and d6-THCu is shown in FIG. 4, and statistics for the individual animal pharmacokinetic parameters is shown in FIG. 5.
Graphs of individual animal plasma concentrations versus time are shown in FIGS. 6-7 (linear axes) and FIGS. 8-9 (semi-logarithmic axes).

Compound COc1cc(CCC(=O)CC(=O)CCc2ccc(O)c(OC)c2)ccc1O [THCu, tetrahydrocurcumin] has an AUC(0-t) of 38300 ng·h/mL, a Cmax of 4070 ng/mL and a Tmax of 1 h.

[2H]C([2H])([2H])Oc1cc(CCC(=O)CC(=O)CCc2ccc(O)c(OC([2H])([2H])[2H])c2)ccc1O [THCu-d6, d6-Tetrahydrocurumin] gave an AUC(0-t) of 43000 ng·h/mL, a Cmax of 2820 ng/mL and a Tmax of 24 h. For the same compound, the “plasma concentration versus time / release profile” value (compared with non-deuterated THCu) was “more stable release profile than the non-deuterated version; also recorded: no burst release of active agent after administration”.

— patent US12697311B2, “Tetrahydrocurcumin compositions, methods of making, and methods of using the same” (Renibus Therapeutics, Inc., priority 2019, dated 2026)
